Test results reported in patent US8119812B2, “Thiazolidinone derivative” (SBI Biotech Co., Ltd., priority 2009, dated 2012).

test system: HeLa cells; assay: Cell proliferation inhibitory activity, WST-1 assay, HeLa cells; type: cell-based; details: FIG. 1; incubation for 24 hours after adding compound; absorbance at 450 nm (WST-1); cell line not given
Description: Cell proliferation inhibitory activity of the thiazolidinone derivatives shown in Tables 2 to 21 and 26 to 29 were evaluated according to the following procedure.
HeLa cells (ATCC) were cultured in a medium (DMEM-10% FCS-Penicillin/Streptomycin) on 10-cm dishes. The medium was removed from the HeLa cells (ATCC) in healthy growth conditions (70 to 90% confluent), the cells were detached by treating with 2 ml of trypsin (TrypL Express, GIBCO), and then the cells were collected using the same medium.
After the collected cells were suspended in the medium at a concentration of 5×10^4 cells/mL, 100 μL, each of the cells were seeded on 96-well plates (FALCON, 3530) at a concentration of 5×10^3 […]. Each medium alone without cells was added to the blank wells. The wells were incubated in a 5% CO2 incubator. The culture media used are as follows.
HeLa cells: DMEM-10% FCS-Penicillin/Streptomycin,
The following day after the start of culturing, the medium was replaced with that including candidate compounds. At the beginning, the candidate compounds were diluted with DMSO, and a 10-step dilution series from 0 μM to 12.5 mM was prepared. 249 μL of the medium was added to 1.5-ml tubes. Then, 1 μL of the compound diluted with DMSO was added thereto at each concentration, and this was mixed. By this procedure, the ratio of DMSO included becomes 1/250. More specifically, in case of the following dilution series, the final concentrations of candidate compounds are as follows.
After removing the medium in wells, each candidate compound was added in duplicate to each well at a volume of 100 μL per one concentration. […]
On the next day or the day after the next day (24 to 48 hours later), 10 μL of Cell Proliferation Reagent WST-1 (ROCHE) was added to each well. […] The formed pigment can be assayed by measuring the absorbance at 450 nm. After incubation for an hour in a CO2 incubator, the absorbance at 450 nm was measured using a microplate reader. The values were evaluated by subtracting the blank value, and plotted by curve-fitting using the Prism software, and IC50 was calculated.

| SMILES | cell proliferation-inhibiting effect |
| --- | --- |
| Cc1cc(OCCN(C)C)ccc1/N=C1/NC(=O)/C(=C/c2cnc(NC(=O)C3CC3)s2)S1 [Compound 119, (2Z,5Z)-N-(5{[2-({4-[2-(dimethylamino)ethoxy]-2-methylphenyl}azamethylene)-4-oxo(1,3-thiazolidin-5-ylidene)]methyl}(1,3-thiazol-2-yl))cyclopropylcarboxamide] | strong inhibitory effect |
| COC(=O)N(C)CCOc1ccc(/N=C2/NC(=O)/C(=C/c3cnc(NC(=O)C4CC4)s3)S2)c(C)c1 [Compound 137, (2Z,5Z)-N-(2-{4-[(5-{[2-(cyclopropylcarbonylamino) (1,3-thiazol-5-yl)]methylene}-4-oxo(1,3-thiazolidin-2-ylidene))azamethyl]-3-methylphenoxy}ethyl) methoxy-N-methylcarboxamide] | strong inhibitory effect |
| Cc1cc(OC2CCN(C)C2)ccc1/N=C1/NC(=O)/C(=C/c2cnc(NC(=O)C3CC3)s2)S1 (stereo not drawn) [Compound 139, (2Z,5Z)-cyclopropyl-N-{5-[(2-{[2-methyl-4-(1-methylpyrrolidin-3-yloxy)phenyl]azamethylene}-4-oxo(1,3-thiazolidin-5-ylidene))methyl] (1,3-thiazol-2-yl)}carboxamide] | strong inhibitory effect |
